Source: patent US20060122106A1, “Prevention and/or treatment of inflammatory bowel disease using pyy or agonists thereof” (Amylin Pharmaceuticals, Inc, priority 2002, published 2006)

Test system: rat model of chronic colonic inflammation (colitis induced by TNBS)
Assay: TNBS hapten-induced colitis model of inflammatory bowel disease (Example 1)
Assay type: in vivo
Settings: for gross morphologic damage score index: male HSD rats, colitis by 30 mg/kg TNBS intracolonic, colon scored (0-5, Table 1) four days after induction, saline control 3.24±0.66, PYY[3-36] 900 μg/kg s.c. twice daily, Depo-Medrol 600 μg/kg i.m., 5-ASA 200 mg/kg intracolonic; for spleen weight (systemic immune suppression): rat, in vivo
Description: Animal preparation: 10-11 weeks old male HSD rats, ranging 250-300 grams, were housed in a 12:12 light:dark cycle, and allowed ad libitum access to a standard rodent diet (Teklad L M 485, Madison, Wis.) and water. The animals were fasted for 24 hours before the experiment. Procedure: A simple and reproducible rat model of chronic colonic inflammation has been previously described by Morris G P, et al., “Hapten-induced model of chronic inflammation and ulceration in the rat colon.” Gastroenterology. 1989; 96:795-803. […] Rats were anesthetized with 3% isofluorane and placed on a regulated heating pad set at 37° C. A gavage needle was inserted rectally into the colon 7 cm. The hapten trinitrobenzenesulfonic acid (TNBS) dissolved in 50% ethanol (v/v) was delivered into the lumen of the colon through the gavage needle at a dose of 30 mg/kg, in a total volume of 0.4-0.6 mL, as described in Mazelin, supra. Control groups received saline solution (NaCl 0.9%) intracolonically. Four days after induction of colitis, the colon was resected from anesthetized rats, which were then euthanized by decapitation. Weights of excised colon and spleen were measured, and the colons photographed for scoring of gross morphologic damage according to Table 1 before division into 3 parts. The segment of colon 1 cm from the cecum was fixed in 10% formalin. Other segments were immediately frozen on dry ice. Inflammation was defined as regions of hyperemia and bowel wall thickening. […] [table] For this assay, 5 treatment groups were set up as follows: • Group A (n=3). intracolonic saline with subcutaneous treatment of saline; • Group B (n=8). subcutaneous treatment of saline prior to induction of colitis by 30 mg/kg TNBS; • Group C (n=10). […] Positive control—intramuscular injection of Depo-Medrol 600 μg/kg 60 min prior to induction of colitis by 30 mg/kg TNBS; • Group E (n=10). Positive control, 5-amino salicylic acid (Sigma) suspension at 200 mg/kg intracolonic administration in 0.5 mL saline, 60 min before induction of colitis and daily thereafter. Results

SMILES	gross morphologic damage score index	spleen weight (systemic immune suppression)
Nc1ccc(O)c(C(=O)O)c1 [5-ASA, 5-aminosalicylic acid]	1.62±0.62	not decreased
CC(=O)OCC(=O)[C@@]1(O)CC[C@H]2[C@@H]3C[C@H](C)C4=CC(=O)C=C[C@]4(C)[C@H]3[C@@H](O)C[C@@]21C [Depo-Medrol]	1.12±0.26	decreased
